Reference: paper PMC3225327 (Journal of Biomedical Science, 2011)

How the values were obtained:
PDE4L = conditions: cited from earlier work
PDE4H = conditions: cited from earlier work
[1] = cited from earlier work
emesis = tested on: emesis; design: method as in PMID 11114405; conditions: ferrets; cited from earlier work
[2] = tested on: xylazine/ketamine-induced anesthesia; design: method as in PMID 11786486; conditions: rats; cited from earlier work
PDE4 [3] = assay: Inhibition of PDE4 activity, two-step procedure and Lineweaver-Burk analysis; type: biochemical, guinea pig
Description: (§1) Activities of PDE1~5 in the homogenate of guinea pig lungs or hearts were measured by a two-step procedure according to the previous method, using cAMP with [^3H]-cAMP or cGMP with [^3H]-cGMP as substrates. […] The reagents and homogenate were mixed on ice, and the reaction was initiated by transferring the mixture to a water bath at 37°C. Following a 30-min incubation, the reaction was stopped by transferring the reaction vessel to a bath of boiling water for 3 min. After cooling on ice, 20 μl of a 1 mg/ml solution of Crotalus atrox snake venom was added to the reaction mixture, and the mixture was incubated at 37°C for 10 min. Unreacted [^3H]-cAMP or [^3H]-cGMP was removed by the addition of 500 μl of a 1-in-1 Tris-HCl (40 mM) buffer suspension of Dowex resin (1 × 8-200) with incubation on ice for 30 min. Each tube was then centrifuged at 3700 g for 2 min, and 150 μl of the supernatant was removed for liquid scintillation counting. […] The total protein in each fraction used was assayed according to a previous method. PDE activities are reported as nmol/mg/min.

[4] = tested on: high-affinity rolipram-binding sites (HARBSs) of guinea pig brain cell membranes; assay: Displacement of 2 nM [3H]-rolipram from high-affinity rolipram-binding sites (PDE4H); conditions: 2 nM [3H]-rolipram, 30°C, 1 h; read-out: EC50 (PDE4H) for displacing [3H]-rolipram binding
Description: When the above-mentioned guinea pigs were sacrificed, the whole brains were removed and homogenized with a glass/Teflon homogenizer (Glas-Col, Terre Haute, IN, USA) in 10 volumes of cold medium (pH 6.5) containing 20 mM Bis-Tris, 2 mM benzamidine, 2 mM EDTA, 50 mM sodium chloride, 0.1 mM PMSF, and 1 mM dithiothreitol. At 4°C, the homogenate was centrifuged at 170 g for 5 min to remove connective tissues and blood vessels. The suspended homogenate was then re-centrifuged at 40,000 g for 30 min to separate the cytosolic and particulate portions. The particulate portion was re-suspended in a suspension at a concentration of 400 mg/ml (wet weight/volume), after washing three times with homogenizing buffer. The particulate portion mainly consisted of cell membranes. […] Briefly, the reaction buffer consisted of 50 mM Tris-HCl and 5 mM MgCl2 (pH 7.5). […] After 1 h, the reaction was terminated by moving the reaction vessel into crushed ice. Then the reaction mixture was transferred onto Whatman GF/B glass-fiber filters, which were soaked in a 0.3% polyethyleneimine solution in a mini-funnel.

[5] = tested on: duration of xylazine/ketamine-induced anesthesia; assay: Xylazine/ketamine-induced anesthesia; conditions: 0.25 h before anesthesia
Description: After loss of the righting reflex (i.e., when a mouse remained on its back and no longer spontaneously righted itself to a prone position), the duration of anesthesia was measured until its return as the endpoint.

PDE4 subtypes (A~D) = tested on: PDE4 subtypes (A~D); design: method as in PMID 16458289; conditions: cited from earlier work
PDE4 [6] = tested on: PDE4; design: method as in PMID 15476679; conditions: cited from earlier work
[7] = tested on: ovalbumin-induced airway inflammation; design: method as in PMID 21287361; conditions: compared with the ovalbumin-induced group; H&E and alcian blue-PAS staining; cited from earlier work
PDE3 = assay: Inhibition of PDE3 activity, two-step procedure; type: biochemical; conditions: homogenate of guinea pig lungs or hearts
Description: as §1

PDE1 = assay: Inhibition of PDE1 activity, two-step procedure; type: biochemical; conditions: homogenate of guinea pig lungs or hearts
Description: as §1

In the case of O=C(Nc1c(Cl)cncc1Cl)C(=O)c1cn(Cc2ccc(F)cc2)c2ccc(O)cc12 [AWD 12-281, N-(3,5-dichloro-pyrid-4-yl)-[1-(4-fluorobenzyl)-5-hydroxy-indole-3-yl]-glyoxylic acid amide], the PDE4L value (PDE4L) is given as 9.7 nM, the PDE4H value (PDE4H) is given as 104 nM and the PDE4H/PDE4L ratio (PDE4H) is given as “approximately 11”. The “efficacy in clinical trials for asthma and COPD” value [1] was “lack of efficacy”.

For COc1cccc(Nc2c(C(N)=O)cnc3c(C)cc(S(=O)(=O)c4cccc(C(=O)N(C)C)c4)cc23)c1 [GSK256066], the “efficacy in trials in asthma” value ([1]; inhaled) is given as “demonstrated efficacy”.

In the case of CN1CC[C@]2(CCN3CCc4c(oc5ccccc45)[C@@H]3C2)N(C)C1=O.Cl [MK-912], the vomiting (emesis) is listed as “trigger vomiting” and the “effect on xylazine/ketamine-induced anesthesia” value [2] is listed as “reverse xylazine/ketamine-induced anesthesia”.

In the case of CCCCOc1cc(CC2CNC(=O)N2)ccc1OC (centres unmarked) [Ro 20-1724, 4-(3-butoxy-4-methoxybenzyl)-2-imidazolidinone, reference compound], the “mode of PDE4 inhibition” value (PDE4 [3]; Lineweaver-Burk analysis, inhibitor 1~10 μM) is reported as “competitively inhibited”, the Ki (PDE4 [3]; Lineweaver-Burk analysis, inhibitor 1~10 μM, substrate cAMP, read-out: dissociation constant for inhibitory binding (Ki), PDE4) is reported as 8.1 ± 2.4 µM and the IC50 (PDE4 [3]; homogenate of guinea pig lungs or hearts) is reported as 4.3 ± 2.1 µM. For the same molecule, the EC50 [4] was 87 ± 29 nM.

In the case of COc1ccc(C2CNC(=O)C2)cc1OC1CCCC1 (centres unmarked) [Rolipram, rolipram], the “effect on duration of xylazine/ketamine-induced anesthesia” value ([5]; 0.01~1 μmol/kg s.c.) is reported as “dose-dependently shortened”, the “effect on duration of xylazine/ketamine-induced anesthesia” value ([5]; 0.01~1 μmol/kg s.c., listed as rolipram) is reported as “reversed the anesthesia” and the “effect on duration of xylazine/ketamine-induced anesthesia” value ([5]; 0.1 and 1 μmol/kg s.c.) is reported as “significantly shortened”. The PDE4H/PDE4L ratio (PDE4H) was 0.01~0.001.

For CCOc1cc([C@@H](CS(C)(=O)=O)N2C(=O)c3cccc(NC(C)=O)c3C2=O)ccc1OC [apremilast], the “efficacy in severe plaque-type psoriasis” value ([1]; oral) is given as “effective”.

In the case of COc1ccc([C@]2(C#N)CC[C@@H](C(=O)O)CC2)cc1OC1CCCC1 [cilomilast], the PDE4L value (PDE4L) is given as 120 nM, the “selectivity among PDE4 subtypes” value (PDE4 subtypes (A~D)) is given as “higher potency for PDE4D compared to PDE4A and PDE4B” and the PDE4H value (PDE4H) is given as 117.8 nM. For the same molecule, the PDE4H/PDE4L ratio (PDE4H) was 1 and the “tolerability: diarrhea and nausea” value ([1]; COPD phase III study, 15 mg twice daily over 6 months) was “higher frequencies of diarrhea and nausea than a placebo”.

For Clc1cccc(Cl)c1N=C1NCCN1 [clonidine], the “effect on emesis induced by PDE4 inhibitors” value (emesis) is listed as “prevented emesis”.

For COc1ccc(C2CC(=O)c3c(O)cc(O)cc3O2)cc1O (centres unmarked) [hesperetin, 5,7,3'-trihydroxy-4'-methoxyflavanone], the “selectivity of PDE inhibition” value (PDE4 [6]) is listed as “selectively inhibit PDE4 activity”.

In the case of COc1ccc([C@@H]2CC(=O)c3c(O)cc(O[C@@H]4O[C@H](CO[C@@H]5O[C@@H](C)[C@H](O)[C@@H](O)[C@H]5O)[C@@H](O)[C@H](O)[C@H]4O)cc3O2)cc1O [hesperidin], the “effect on inflammatory cell infiltration and mucus hypersecretion in lung” value [7] is given as “inhibit inflammatory cell infiltration and mucus hypersecretion”.

In the case of Cc1[nH]c(=O)c(C#N)cc1-c1ccncc1 [milrinone, reference compound], the IC50 (PDE3) is reported as 2500 ± 1600 nM.

For O=C(Nc1c(Cl)cncc1Cl)c1ccc(OC(F)F)c(OCC2CC2)c1 [roflumilast], the PDE4L value (PDE4L) is given as 0.8 nM, the “selectivity among PDE4 subtypes” value (PDE4 subtypes (A~D)) is given as “non-selective for these four PDE4 subtypes” and the PDE4H value (PDE4H) is given as 2.4 nM. The PDE4H/PDE4L ratio (PDE4H) was 3, the “mean pre- and post-bronchodilator FEV1” value ([1]; patients with moderate-to-severe COPD, compared to placebo) was “significantly improve” and the “nausea, diarrhea, weight loss, and headaches” value ([1]; patients with moderate-to-severe COPD) was “more frequent”.

Molecule CCOC(=O)C1=C[C@]2(CC)CCCN3CCc4c(n1c1ccccc41)[C@@H]32 [vinpocetin, Vinpocetine, reference compound] has an IC50 (PDE1) of 42.3 ± 5.8 µM.
